Measurements published in US20220332836A1, “A METHOD FOR PREVENTING HUMAN VIRUS ASSOCIATED DISORDERS IN PATIENTS” (NOVARTIS AG, priority 2019, published 2022).

Assays:
[1] = in vivo
[2] = tested on: PBMC; experiment: Induction of PBMC proliferation; format: cell-based
Protocol: (§1) mAb1 binds to human CD40 with high affinity (Kd of 0.3 nM).

[3] = tested on: Fcγ receptors (including CD16); experiment: Fcγ receptor binding
[4] = tested on: monocyte-derived dendritic cells (DCs); experiment: Cytokine production by monocyte-derived dendritic cells; format: cell-based
Protocol: as §1

[5] = tested on: CD40; design: species or system cynomolgus monkeys; conditions: cynomolgus monkey, in vivo
Protocol: (§2) In a PK/PD study in cynomolgus monkeys, the inflection point (about 10 μg/mL) in the PK profiles was associated with a drop of CD40 saturation, as determined in an independent lymphocyte target saturation assay. As such this inflection point is viewed as a marker for the level of saturation of CD40, and an evidence for target engagement. […] Monkeys were immunized with KLH three times (the first was about 3 weeks prior to dosing, the second was 2 weeks after mAb1 administration, and the third was after complete wash-out of mAb1). […]

[6] = biological target: T1, CD40 (Homo sapiens, UniProt P25942); experiment: CD40 receptor occupancy and CD154-induced CD69 expression in human whole blood cultures; format: cell-based; conditions: CD20 positive B cells
T1 construct: CD40 occupancy on peripheral B cells measuring free CD40 and total CD40; endogenous in cells; host or cells: peripheral / whole blood B cells of healthy subjects and rheumatoid arthritis patients (in vivo)
Excerpt: In addition, mAb1 can disrupt established germinal centers (GCs) in vivo. The CD40 receptor occupancy and functional activity were simultaneously assessed in vitro using human whole blood cultures. Functional activity was quantified via CD154-induced expression of CD69 (the activation marker) on CD20 positive cells (B cells) and CD40 occupancy was monitored using fluorescently labeled mAb1.

[7] = tested on: EBV-seronegative EBV-B cell/T cell co-cultures; experiment: EBV-B cell/T cell co-culture, EBV-seronegative donors; format: cell-based, human
[8] = tested on: EBV-seropositive EBV-B cell/T cell co-cultures; experiment: EBV-B cell/T cell co-culture, EBV-seropositive donors
[9] = tested on: PBMC incubated with EBV supernatant; experiment: EBV regression assay with PBMC; format: cell-based, human
Protocol: Buffy coats from six healthy volunteers (18-001 to 18-006) were received from Blutspendezentrum Bern. Peripheral blood mononuclear cells (PBMC) were isolated using LeucoSep tubes following manufacturer's instructions, counted with TC20 and adjusted in cell culture medium (Medium, buffers and reagents). All conditions (see Table 3-2) were run in five replicates in 96-well U-bottom plates and contained 2×10^5 cells/well. PBMC were incubated for 10-15 minutes at 37° C. before adding cell culture medium containing EBV-supernatant and transferrin (see Medium, buffers and reagents). […] Cell pellets were stained and analyzed by flow cytometry (FACS staining procedure).
In FIG. 1, the gating strategy is shown.

[10] = tested on: non-human primate CD40; experiment: Binding to non-human primate CD40
Protocol: as §1

[11] = biological target: T2, CD40 (Macaca mulatta, UniProt A0ACM8QRX8); experiment: KLH / tetanus toxoid immunization in rhesus monkeys; format: in vivo
T2 construct: CD40 occupancy by mAb1 at plasma concentrations >40 μg/mL; endogenous in cells; host or cells: rhesus monkeys (in vivo)
Protocol: as §2

[12] = 26-week chronic toxicity study in cynomolgus monkeys; format: in vivo; conditions: for mean Cmax,ss: sc
Protocol: Inflammatory lesions in the kidneys and lungs of 2 animals at 50 mg/kg were noted, and in one of the two animals, lesions in the eyes and trachea were also noted. […] In view of these inflammatory findings, the No Observed Adverse Effect Level (NOAEL) for the 13-week toxicity study was set at 10 mg/kg. […] The NOAEL derived from the 26-week cynomolgus monkey study is considered the most relevant for supporting the clinical dosing regimen.
Adequate safety margin from preclinical toxicological studies: GLP toxicology studies to date have tested CFZ533 at (i) weekly s.c. dosing for 13 weeks at 10, 50, and 150 mg/kg (s.c. and i.v.) in rhesus monkeys, and (ii) weekly s.c. dosing for 26 weeks at 1, 50, and 150 mg/kg in cynomolgus monkeys.
In the 26-week toxicity study in cynomolgus monkey, at steady state, an average concentration of 8300 μg/mL (Cav,ss) was obtained after weekly dosing at 150 mg/kg (NOAEL).
The 10 mg/kg i.v. regimen was expected to provide, throughout the entire treatment period (placebo-controlled and open-label, see FIG. 3), sustained plasma concentrations above 40 μg/mL, to anticipate for higher CD40 expression in tx patients, and incomplete PD effects in target tissue due to loss of target saturation.

[13] = 10 μg/mL (priming only; priming and recall) and 50 μg/mL (recall only)
[14] = 10-200 μg/mL, priming, recall, priming and recall, 11 days
[15] = 14 days, CsA 0.1, 1 μM, Belatacept 10, 50 μg/mL, CFZ533, hIgG1 10-200 μg/mL, vs medium+EBV
[16] = cynomolgus monkey, in vivo, 150 mg/kg

T2 sequence (A0ACM8QRX8 21-278): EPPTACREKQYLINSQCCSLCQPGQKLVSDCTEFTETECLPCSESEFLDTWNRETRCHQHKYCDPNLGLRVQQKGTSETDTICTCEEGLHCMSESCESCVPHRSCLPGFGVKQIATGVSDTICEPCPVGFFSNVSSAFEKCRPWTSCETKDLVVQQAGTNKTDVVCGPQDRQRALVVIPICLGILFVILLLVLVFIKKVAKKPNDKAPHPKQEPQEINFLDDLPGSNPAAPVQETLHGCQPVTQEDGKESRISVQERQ
T1 sequence (P25942 21-277): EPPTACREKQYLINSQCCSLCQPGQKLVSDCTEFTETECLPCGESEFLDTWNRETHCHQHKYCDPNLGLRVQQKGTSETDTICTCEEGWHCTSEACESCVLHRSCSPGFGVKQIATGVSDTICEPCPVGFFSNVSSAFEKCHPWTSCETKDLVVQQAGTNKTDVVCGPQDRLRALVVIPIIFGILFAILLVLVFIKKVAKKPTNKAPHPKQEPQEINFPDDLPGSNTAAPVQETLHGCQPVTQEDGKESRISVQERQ

CFZ533: fully human monoclonal Fc-silent, non-depleting anti-CD40 antibody (IgG1/K); heavy chain SEQ ID NO: 9, light chain SEQ ID NO: 10
inflection point of non-linear serum concentration-time profiles [1]: 10 to 20 µg/mL | induction of PBMC proliferation [2]: does not induce | binding to Fcγ receptors (including CD16) [3]: does not bind | induction of cytokine production by monocyte-derived dendritic cells [4]: does not induce | inflection point in the PK profiles (drop of CD40 saturation) [5]: about 10 μg/mL | CD40 occupancy required for full inhibition of rCD154-induced CD69 expression [6]: Almost complete | CD4+ T cell proliferation [7, 13]: slight not significant increase | CD8+ T cell proliferation [7, 13]: slight not significant increase | CD4+ T cell proliferation ([7]; 10-200 μg/mL, all three conditions): no effects | CD3+ T cell proliferation [7, 14]: no reducing effect | CD8+ T cell proliferation ([7]; all tested concentrations): no major effects | CD3+ T cell proliferation [8, 14]: no reducing effect | CD4+ T cell proliferation [8, 14]: no decreasing effect | CD4+ T cell proliferation ([8]; priming only phase): slight decline | EBV control in vitro [9]: does not impair | CD3+ T cell counts [9, 15]: did not had any effect | CD19+ B cell counts [9, 15]: decrease | affinity for human and non-human primate CD40 [10]: very similar affinities | plasma concentration at which CD40 occupancy completely prevented recall antibody responses ([11]; at the time of the second KLH vaccination): > 40 µg/mL | response to the third KLH ([11]; once mAb1 was cleared): full memory antibody response | average steady state plasma concentration with complete suppression of germinal centers in cortical B cell areas of lymph nodes ([12]; 1 mg/kg dose group): > 38 µg/mL | NOAEL ([12]; 26-week, cynomolgus): 150 mg/kg | adverse findings ([12]; cynomolgus monkey, in vivo): no adverse, mAb1-related findings | average concentration at steady state (Cav,ss) [12, 16]: 8300 µg/mL | systemic exposure (AUC, steady state) over a 1-month period [12, 16]: 232400 µg·days/mL | mean Cmax,ss ([12]; cynomolgus monkey, in vivo, 1 mg/kg): 44 µg/mL | mean Cmax,ss ([12]; cynomolgus monkey, in vivo, 50 mg/kg): 3235 µg/mL | GCs in cortical B-cell areas of the spleen and lymphatic tissues ([12]; post-mortem histological and immuno-histological evaluation): decrease | Cmax margin: cynomolgus Cmax,ss at NOAEL versus expected human Cmax ([12]; proposed intravenous regimen): 24 fold
